Measured values published in patent publication US20110269825A1, “Modified Thromboxane A2 Receptor Promoter Sequence” (priority 2008, published 2011).

Tested on: HEL 92.1.7 cells
Assay: Dual luciferase genetic reporter assay of promoter-directed luciferase expression in HEL cells
Format: cell-based, human
Details: HEL; for Decrease in luciferase expression relative to Prm1B (−7962): 5′ deletion or site-directed mutation of Prm1B; for Decrease in luciferase expression relative to Prm1HΔ (−6320): site-directed mutation within Prm1HΔ; for Increase in luciferase activity relative to Prm1 (−8500): 5′ deletion or site-directed mutation of Prm1
Method: HEL and EA.hy 926 cells were co-transfected with the various pGL3Basic-recombinant plasmids (2 mg), encoding firefly luciferase, along with pRL-TK (200 ng), encoding renilla luciferase, using DMRIE-C® transfection reagent. HEK293, WI-38, and 1° hAoSMCs were co-transfected with the pGL3Basic-recombinant plasmids (2 mg), along with pRL-TK (200 ng), using Effectene transfection reagent. In all cases, cells co-transfected with pRL-TK (200 ng) in the presence of either the pGL3Control vector (firefly luciferase gene under the control of the SV40 promoter; 2 mg) or the promoter-less pGL3Basic empty vector (2 mg), which served as positive and negative controls, respectively. Firefly and renilla luciferase expression was assayed some 48 h post-transfection using the Dual-Luciferase Reporter Assay System™, as described (Coyle et al., 2005). Relative firefly to renilla luciferase activity (arbitrary units) was calculated as a ratio and was expressed in relative luciferase units (RLU). To investigate the effect of over-expression of exon 5 (+ or −) or KTS (+ or −) isoforms of WT1 on Prm1-directed gene expression, HEL cells were co-transfected with either pGL3b:Prm1 or pGL3b:Prm1D (1.5 μg) plus 200 ng of pRL-TK along with either pcDNA3:WT1 (+/+), pcDNA3:WT1 (+/−), pcDNA3:WT1 (−/+), pcDNA3:WT1 (−/−) (0.5 μg), or as a control, pcDNA3 (0.5 μg). Cells were harvested 48 h post-transfection and assayed for luciferase activity, as above, or subjected to western blot or RT-PCR analysis. The plasmids pcDNA3:WT1 (+/+), pcDNA3:WT1 (+/−), pcDNA3:WT1 (−/+) and pcDNA3:WT1 (−/−) were generously donated by Dr. Charles T. Roberts JR, Oregon National Primate Research Center, Oregon, USA and have been previously described (Tajinda et al., 1999). For PMA studies, approximately 32 h post-transfection, the medium was supplemented with PMA (100 nM), with PMA (100 nM) and PD98059 (10 μM) or, as a control, with vehicle [0.1% (v/v) DMSO]. After 16 h, cells were assayed for firefly and renilla luciferase using the Dual-Luciferase Reporter Assay System™ as previously described (Coyle et al., 2005). The plasmid pCMV5-NAB1, containing the entire coding sequence for NAB1, was generously donated by Dr. Gerald Thiel, University of Saarland Medical Center, Homburg, Germany, and has been described previously (Thiel et al., 2000). To investigate the effect of over-expression of NAB1 on the PMA-mediated induction of Prm1-directed gene expression, HEL cells were transiently co-transfected with pGL3b:Prm1 (2 μg) plus pRL-TK (200 ng) along with either pCMV5 (control) or pCMV:NAB1 (1 μg). Cells were harvested 48 h post-transfection and assayed for luciferase activity, as above.

Substance: Prm1B^Ets(−7870)*: Prm1B with Ets element at −7870 mutated (SEQ ID NO:19) (DNA GACAGGTGAAGTGGGGA; expressed or natural sequence; listed as Homo sapiens)
- Decrease in luciferase expression relative to Prm1B (−7962): 2.2 fold

Substance: Prm1B^GATA(−7890)*: Prm1B with GATA element at −7890 mutated (SEQ ID NO:17) (DNA CTTGGTAGCTCAG; expressed or natural sequence; listed as Homo sapiens)
- Decrease in luciferase expression relative to Prm1B (−7962): 1.8 fold

Substance: Prm1BΔGata/Ets^Ets(−7805)*: Prm1BΔGata/Ets with Ets element at −7805 mutated (SEQ ID NO:21) (DNA GCCCCACATCACCCTCC; expressed or natural sequence; listed as Homo sapiens)
- Luciferase expression compared with another construct, in words (comparator as named in the words or parent fragment): did not significantly affect the level of luciferase activity

Substance: Prm1D^GC*^(−6717): Prm1D with GC element at −6717 mutated (SEQ ID NO:23) (DNA TCTGTCCTATCACCCCA; expressed or natural sequence; listed as Homo sapiens)
- Increase in luciferase expression relative to Prm1D (−6848) (5′ deletion or site-directed mutation of Prm1D): 4.8 fold

Substance: Prm1HΔ^NF-E2/AP1(−6080)*: Prm1HΔ with NF-E2/AP1 element at −6080 mutated (SEQ ID NO:33) (DNA CCAGACACACTCAGTTTCCCT; expressed or natural sequence; listed as Homo sapiens)
- Decrease in luciferase expression relative to Prm1HΔ (−6320): reduced luciferase activity

Substance: Prm1HΔ^Sp1/Egr1(−6007)*: Prm1HΔ with Sp1/Egr1 element at −6007 mutated (SEQ ID NO:37) (DNA CCCTCGCAATACCCTCGG; expressed or natural sequence; listed as Homo sapiens)
- Decrease in luciferase expression relative to Prm1HΔ (−6320): 1.5 fold

Substance: Prm1HΔ^Sp1/Egr1(−6022)*: Prm1HΔ with Sp1/Egr1 element at −6022 mutated (SEQ ID NO:35) (DNA TCTGCCCTAACCCAGCCCT; expressed or natural sequence; listed as Homo sapiens)
- Decrease in luciferase expression relative to Prm1HΔ (−6320): 1.8 fold

Substance: Prm1HΔ^Sp1/Egr1(−6278)*: Prm1HΔ with Sp1/Egr1 element at −6278 mutated (SEQ ID NO:27) (DNA CGCAGGGTGTATGGGGCTG; expressed or natural sequence; listed as Homo sapiens)
- Decrease in luciferase expression relative to Prm1HΔ (−6320): reduced luciferase activity

Substance: Prm1HΔ^Sp1/Egr1(−6294)*: Prm1HΔ with Sp1/Egr1 element at −6294 mutated (SEQ ID NO:25) (DNA CGAGGAACATGGCCA; expressed or natural sequence; listed as Homo sapiens)
- Decrease in luciferase expression relative to Prm1HΔ (−6320): 1.3 fold

Substance: Prm1I^GC*^(−6206): Prm1I with GC element at −6206 mutated (SEQ ID NO:29) (DNA CAGCGGCCTACACCCGT; expressed or natural sequence; listed as Homo sapiens)
- Increase in luciferase activity relative to Prm1I (−6258) (5′ deletion or mutation of Prm1I): 1.3 fold

Substance: Prm1^GC*^(−7831): Prm1 with GC element at −7831 mutated (SEQ ID NO:15) (DNA TCACTGTCCTCTCATCT; expressed or natural sequence; listed as Homo sapiens)
- Increase in luciferase activity relative to Prm1 (−8500): 2.1 fold

Substance: Prm1^GC*^(−8281): Prm1 with GC element at −8281 mutated (SEQ ID NO:11) (DNA GCCCGGTTCCCGCCGGA; expressed or natural sequence; listed as Homo sapiens)
- Increase in luciferase activity relative to Prm1 (−8500): 1.9 fold

Substance: Prm1^GC*^(−8345): Prm1 with GC element at −8345 mutated (SEQ ID NO:9) (DNA TGCCCCTGACCCCAC; expressed or natural sequence; listed as Homo sapiens)
- Increase in luciferase activity relative to Prm1 (−8500): 2.0 fold
